Assay results from patent publication US20250090576A1, “METHODS FOR TREATING NONTUBERCULOUS MYCOBACTERIA DISEASES” (Microbion Corporation, priority 2022, published 2025).
Values after ≈ are worked out from the molar mass of the structure shown. Read-outs that look alike come from different tables or passages of the source.

Tests used:
[1] = test system: M. abscessus MABS2 biofilm; experiment: MBEC assay (minimum biofilm eradication concentration); assay type: cell-based; settings: 18 h challenge
Excerpt: (§1) In this study the MBEC assay was followed as described in the Innovotech Procedural Manual, version 2.1 with minor modifications to assess the antibiofilm activity of the antimicrobial compounds under investigation. The MBEC value refers to the Minimum Biofilm Eradication Concentration of each antimicrobial for each strain. The MBEC value is defined as the minimum antibiotic concentration where the optical density (OD) value at recovery is less than 10% of the control OD value and there is no growth observed with visual examination of the wells.
(§2) Step 1: Inoculation. For resuscitation, all strains were streaked on TSA plates, except for the mycobacteria which were streaked on 7H10 media, from the frozen stocks, and grew overnight at 37° C. (Table 6). From the plate, one colony was picked for inoculation in organism specific medium (OSM) and grown in a shaker incubator at 37° C. at 225 RPM until mid-log phase (OD 0.2-0.8). At mid log phase the culture was diluted in OSM medium (Table 6) to an OD of 0.05. 150 μL of it were aliquoted in each corresponding well in a 96-well MBEC plate (inoculation plate). Subsequently, the MBEC plates were incubated static at 37° C. for the appropriate time for each species (Table 7). During incubation, biofilm formed on the pegs.
(§3) Step 2: Challenge. Following incubation, the peg lid with the biofilm was washed twice in PBS and placed on a second 96-well plate with 200 μl of antibiotic dilutions (challenge plate). The challenge plate was then incubated at 37° C. for 18 h to allow exposure of the biofilm to antibiotics.
(§4) Step 3: Recovery. In the final step, the peg lid (with the biofilm after treatment with the antibiotics) was washed again twice in PBS and placed on a third 96-well plate (recovery plate) with 200 μl growth medium in each well to allow growth of any bacterial cells resistant to antibiotics at any concentration. The recovery of resistant cells was assessed by an end-point measurement of the optical density at 600 nm (OD600) for each well with a plate reader (FIG. 4).

[2] = test system: M. abscessus MABS4 biofilm; experiment: as above; assay type: cell-based; settings: 18 h challenge
Excerpt: as §1, §2, §3, §4

[3] = test system: M. abscessus MABS11 biofilm; experiment: as above; assay type: cell-based; settings: 18 h challenge
Excerpt: as §1, §2, §3, §4

[4] = test system: M. abscessus MABS9 biofilm; experiment: as above; assay type: cell-based; settings: 18 h challenge
Excerpt: as §1, §2, §3, §4

[5] = test system: M. abscessus MABS1 biofilm; experiment: as above; assay type: cell-based; settings: 18 h challenge
Excerpt: as §1, §2, §3, §4

[6] = test system: M. abscessus MABS7 biofilm; experiment: as above; assay type: cell-based; settings: 18 h challenge
Excerpt: as §1, §2, §3, §4

[7] = test system: M. abscessus MABS9; experiment: MIC (Table 8); assay type: cell-based; settings: Mycobacteroides abscessus
[8] = test system: M. abscessus MABS1; experiment: MIC (Table 8); assay type: cell-based; settings: Mycobacteroides abscessus
[9] = test system: M. abscessus MABS4; experiment: MIC (Table 8); assay type: cell-based; settings: Mycobacteroides abscessus
[10] = test system: M. abscessus strain 19977; experiment: MIC broth dilution, growth by turbidity/OD 595 nm; assay type: cell-based; settings: for Sensitivity phenotype (R/I/S): 19977; for MIC: Mycobacteroides abscessus
Procedure: (§5) Mycobacteria strains were used to determine MICs of BisEDT and amikacin. Strains included cystic fibrosis patient isolates from National Jewish Hospital. A range of high dose to low dose of antibiotics was used to determine bacteria susceptibility. M. avium strain 104, M. avium strain 3388, and CF patient strain DNA00133 were grown to log phase (7 days) while M. abscessus strain 19977, CF patient strain DNA00703, and CF patient strain DNA01715 achieved log phase (4 days) on 7H10 middlebrook media plates supplemented with 10% OADC (Oleic acid, Albumin, Dextrose, Catalase). […] For BisEDT, two types of compound physical states were tested. First, BisEDT was solubilized in DMSO (furthermore labeled soluble BisEDT). Second, BisEDT was made in suspension to mimic in vivo studies (furthermore labeled insoluble BisEDT). […] Control tubes containing no antibiotics were also included for each antibiotic tested. Inoculums of […] bacteria for each strain was measured with optical density (O.D.) at 595 nm. 10 μl of these inoculums were added to each antibiotic tube and incubated in a shaking incubator at 37° C. and 200 rpm. Slow growing stains were measured for growth after 10 days incubation while fast growing strains were incubated for 5 days. After incubation, 100 μl from each tube was pulled and placed in a 96-well plate for O.D. reading. Turbidity determined sensitive, intermediate, or resistant bacteria.

[11] = test system: M. avium strain 3388 (MAH 3388); experiment: MIC broth dilution, growth by turbidity/OD 595 nm; assay type: cell-based; settings: for Sensitivity phenotype (R/I/S): MAH 3388; for MIC: Mycobacterium avium
Procedure: as §5

[12] = test system: M. avium strain 104 (MAH 104); experiment: MIC broth dilution, growth by turbidity/OD 595 nm; assay type: cell-based; settings: for Sensitivity phenotype (R/I/S): MAH 104; for MIC: Mycobacterium avium
Procedure: as §5

[13] = test system: M. abscessus MABS2; experiment: MIC (Table 8); assay type: cell-based; settings: Mycobacteroides abscessus
[14] = test system: CF patient strain DNA00133; experiment: MIC broth dilution, growth by turbidity/OD 595 nm; assay type: cell-based, M. avium; settings: for MIC: Mycobacterium avium
Procedure: as §5

[15] = test system: M. abscessus MABS11; experiment: MIC (Table 8); assay type: cell-based; settings: Mycobacteroides abscessus

For `NCC[C@H](O)C(=O)N[C@@H]1C[C@H](N)[C@@H](O[C@H]2O[C@H](CN)[C@@H](O)[C@H](O)[C@H]2O)[C@H](O)[C@H]1O[C@H]1O[C@H](CO)[C@@H](O)[C@H](N)[C@H]1O` [amikacin], which MBEC [1] is on record?
The MBEC was over 512 µg/mL.

And the MBEC [2]?
The MBEC was 8 µg/mL.

And the MBEC ([2]; listed as Amikacin)?
The MBEC was under 8 µg/mL.

What about the MBEC [3] of the same compound?
The MBEC was over 16 µg/mL.

What about the MBEC [4] of the same compound?
Its MBEC is over 64 µg/mL.

And the MBEC [5]?
The MBEC was over 128 µg/mL.

And the MBEC [6]?
Its MBEC is over 16 µg/mL.

And the MIC [7]?
The MIC was 8 mg/L (≈ 13.7 µM).

What about the MIC [8] of the same compound?
Its MIC is 16 mg/L (≈ 27.3 µM).

What about the MIC [9] of the same compound?
The MIC was 4 mg/L (≈ 6.83 µM).

And the “Sensitivity phenotype (R/I/S)” value ([10]; 1 μg/mL)?
The value was “R”.

What about the “Sensitivity phenotype (R/I/S)” value ([10]; 2 μg/mL) of the same compound?
Its value is “R”.

And the “Sensitivity phenotype (R/I/S)” value ([10]; 4 μg/mL)?
The value was “R”.

And the “Sensitivity phenotype (R/I/S)” value ([10]; 8 μg/mL)?
The value was “R”.

What about the “Sensitivity phenotype (R/I/S)” value ([10]; 16 μg/mL) of the same compound?
The value was “R”.

What about the “Sensitivity phenotype (R/I/S)” value ([10]; 32 μg/mL) of the same compound?
The value was “S”.

And the “Sensitivity phenotype (R/I/S)” value ([10]; 64 μg/mL)?
The value was “S”.

And the “Sensitivity phenotype (R/I/S)” value ([10]; 128 μg/mL)?
The value was “S”.

What about the MIC ([10]; M. abscessus strain 19977 (Table 4), read-out: MIC determined for the strain, used for treatment of infected macrophages) of the same compound?
The MIC was 32 mg/L (≈ 54.6 µM).

And the MIC ([10]; M. abscessus strain 19977, read-out: MIC)?
Its MIC is 32 mg/L (≈ 54.6 µM).

And the “Sensitivity phenotype (R/I/S)” value ([11]; 1 μg/mL)?
The value was “R”.

And the “Sensitivity phenotype (R/I/S)” value ([11]; 2 μg/mL)?
Its value is “R”.

What about the “Sensitivity phenotype (R/I/S)” value ([11]; 4 μg/mL) of the same compound?
Its value is “I”.

And the “Sensitivity phenotype (R/I/S)” value ([11]; 8 μg/mL)?
Its value is “S”.

And the “Sensitivity phenotype (R/I/S)” value ([11]; 16 μg/mL)?
Its value is “S”.

What about the “Sensitivity phenotype (R/I/S)” value ([11]; 32 μg/mL) of the same compound?
The value was “S”.

What about the “Sensitivity phenotype (R/I/S)” value ([11]; 64 μg/mL) of the same compound?
The value was “S”.

What about the “Sensitivity phenotype (R/I/S)” value ([11]; 128 μg/mL) of the same compound?
Its value is “S”.

What about the MIC ([11]; M. avium strain 3388 (Table 3), read-out: MIC determined for the strain, used for treatment of infected macrophages) of the same compound?
Its MIC is 8 mg/L (≈ 13.7 µM).

What about the MIC ([11]; M. avium strain 3388, read-out: MIC) of the same compound?
The MIC was 8 mg/L (≈ 13.7 µM).

What about the “Sensitivity phenotype (R/I/S)” value ([12]; 1 μg/mL) of the same compound?
Its value is “R”.

What about the “Sensitivity phenotype (R/I/S)” value ([12]; 2 μg/mL) of the same compound?
The value was “R”.

And the “Sensitivity phenotype (R/I/S)” value ([12]; 4 μg/mL)?
The value was “R”.

And the “Sensitivity phenotype (R/I/S)” value ([12]; 8 μg/mL)?
Its value is “S”.

And the “Sensitivity phenotype (R/I/S)” value ([12]; 16 μg/mL)?
Its value is “S”.

What about the “Sensitivity phenotype (R/I/S)” value ([12]; 32 μg/mL) of the same compound?
Its value is “S”.

And the “Sensitivity phenotype (R/I/S)” value ([12]; 64 μg/mL)?
Its value is “S”.

And the “Sensitivity phenotype (R/I/S)” value ([12]; 128 μg/mL)?
Its value is “S”.

What about the MIC ([12]; M. avium strain 104 (Table 3), read-out: MIC determined for the strain, used for treatment of infected macrophages) of the same compound?
The MIC was 8 mg/L (≈ 13.7 µM).

What about the MIC ([12]; M. avium strain 104, read-out: MIC) of the same compound?
The MIC was 8 mg/L (≈ 13.7 µM).

And the MIC [13]?
Its MIC is 32 mg/L (≈ 54.6 µM).

And the “Sensitivity phenotype (R/I/S)” value ([14]; 1 μg/mL)?
Its value is “R”.

And the “Sensitivity phenotype (R/I/S)” value ([14]; 2 μg/mL)?
The value was “R”.

And the “Sensitivity phenotype (R/I/S)” value ([14]; 4 μg/mL)?
Its value is “R”.

What about the “Sensitivity phenotype (R/I/S)” value ([14]; 8 μg/mL) of the same compound?
Its value is “R”.

What about the “Sensitivity phenotype (R/I/S)” value ([14]; 16 μg/mL) of the same compound?
The value was “R”.

And the “Sensitivity phenotype (R/I/S)” value ([14]; 32 μg/mL)?
The value was “R”.

What about the “Sensitivity phenotype (R/I/S)” value ([14]; 64 μg/mL) of the same compound?
The value was “R”.

What about the “Sensitivity phenotype (R/I/S)” value ([14]; 128 μg/mL) of the same compound?
Its value is “R”.

And the MIC [14]?
Its MIC is over 128 mg/L.

What about the MIC ([14]; M. avium strain 1333 (Table 3), read-out: MIC determined for the strain, used for treatment of infected macrophages) of the same compound?
The MIC was 8 mg/L (≈ 13.7 µM).

And the MIC [15]?
The MIC was 1 mg/L (≈ 1.71 µM).
